Source: patent US20180116993A1, “MODULATORS OF FARNESOID X RECEPTOR AND METHODS FOR THE USE THEREOF” (XIAMEN UNIVERSITY, priority 2015, published 2018)
Marks after values point to notes of the source that are not given here.

Columns and labels:
db/db mice [1] = assay: Serum/blood metabolic parameters in high-fat diet fed db/db mice; format: in vivo, mouse; settings: 10 mg/kg, treat for 10 days, vehicle 527 ± 63
How it was run: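 db/db mice aged 8–10 weeks on high-fat diet received compounds i.p. once daily for 7, 10, 11 or 14 days, then were fasted 6 h and sacrificed. Serum glucose (glucose oxidase), insulin (ELISA), cholesterol, FFA and triglycerides measured by kits; some blood glucose by tail strips after the 6th injection and 16 h fast.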

db/db mice [2] = assay: Hepatic triglyceride, liver histology, serum ALT and ALP in high-fat diet fed db/db mice; format: in vivo, mouse; settings: for Hepatic triglyceride (mM/g): vehicle 148 ± 14; for Serum ALP (U/L): vehicle 129 ± 15
How it was run: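 High-fat diet fed db/db mice aged 8-10 weeks dosed 10 mg/kg compound once daily for 10 days. Liver sections stained with H&E and 0.3% oil red O; hepatic triglyceride measured by tissue assay kit; serum ALP and ALT activities measured by kit.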

[3] = test system: inflammatory cytokines in tissues of db/db mice; assay: Inflammatory cytokine mRNA levels in tissues of high-fat diet fed db/db mice (RT-PCR); format: in vivo, mouse; settings: 5 mg/kg; for mRNA level of iNOS (fold), Liver tissue: vehicle 1.06 ± 0.14; for mRNA level of iNOS (fold), Colon tissue: vehicle 1.12 ± 0.23; for WAT, mRNA level (fold), IL-1β / WAT, mRNA level (fold), TNFα: white adipose tissue; for WAT, mRNA level (fold), IL-1β: vehicle 1.06 ± 0.2; for WAT, mRNA level (fold), TNFα: vehicle 1.15 ± 0.13
From the text: In this example, we detected the levels of various inflammatory cytokines including iNOS, IFNγ, TGFβ, TNFα, COX2, IL-1β, IL-6, SAA1, MIP-1α and CD36 in liver, kidney, white adipose tissue (WAT) in various mice models, including wild type mice treated with APAP in example 4, high-fat diet fed diabetic and obesity db/db and KK-Ay mice in example 5, high-fat diet fed wild-type mice in Example 5, as well as in primary hepatocytes with LPS induced inflammation, using RT-PCR.

[4] = test system: mice with APAP-induced liver injury; assay: Acetaminophen (APAP)-induced liver injury in mouse; format: in vivo; settings: 5 mg/kg i.p. once daily for five days, then APAP 500 mg/kg, 8-week age mice; for ALT (U/L): serum, vehicle 786 ± 111
From the text: Methods: Acetaminophen (APAP)-induced liver injury in mouse is a commonly used model to study drugs protecting liver. Overdose of APAP causes liver injury by inducing the production of reactive oxygen species and reactive nitrogen species, and excessive consumption of reductive substances such as antioxidant glutathione (GSH), leading to the reduction of GSH in vivo, and the following upregulation of the activities of the aspartate aminotransferase (AST), the alanine aminotransferase (ALT) and the lactate dehydrogenase (LDH), which will result in liver inflammation and necrosis. In this example, the APAP-induced liver injury was used to detect the protection and repair functions of our compounds in liver injury.
One-year or 8-week age mice were maintained under environmentally controlled conditions with free access to standard chow diet and water. Animal experiments were conducted in the barrier facility of the Laboratory Animal Center, Xiamen University, approved by the Institutional Animal Use and Care Committee of Xiamen University, China.
Compounds were solved with DMSO and then prepared to work concentration with 40% HBC (2-hydroxypropyl-β-cyclodextrin) in which the final work concentrations of compounds are 5 mg/kg body weight, 10 mg/kg or 20 mg/kg in 100 μl injection volume and the concentration of DMSO is 10%. Compounds were intraperitoneal (i.p.) injected once daily for five days. For Feroline and Tschimganine, one-year age mice were used in the experiment. For other compounds, 8-week age mice were used. […] For Tschimganine, 20 mg/kg dose of compound was administered to mice. For other compounds, 5 mg/kg dose of compounds were administered to mice. Six hours after the fifth injection, 500 mg/kg body weight of APAP solved in PBS was i.p. injected to the mice. 24 hours later, mice were sacrificed. Part of each liver was fixed in 4% paraformaldehyde, and the liver histology characterization was analyzed by haematoxylin and eosin (H&E) staining with paraffin-embedded sections by standard procedures. Other liver tissues were collected for detecting the GSH levels, and the mRNA expression of genes involved in liver repairing, such as GPX1 and UGT1a1, by RT-PCR. The serums were collected to measure enzymes activities including AST, ALT and LDH. For the synthetic derivatives, ALT and GSH were selected as indicating markers for the function of these compounds.

SOD2 = assay: mRNA level of antioxidant gene SOD2 in livers of db/db mice; format: in vivo, mouse; settings: 10 mg/kg, vehicle 1 ± 0.3
[5] = 10 mg/kg for 10 days, vehicle 377 ± 48, Table 15
[6] = 10 mg/kg once daily for 10 days
[7] = 10 mg/kg once daily for 10 days, vehicle 377 ± 48, Table 17

Structure (SMILES)	Serum Glucose (mg/dl) (db/db mice [1])	Hepatic triglyceride (mM/g) (db/db mice [2]; 10 mg/kg for 10 days)	Serum ALT (U/L) (db/db mice [2]; [5])	Serum ALP (U/L) (db/db mice [2]; [6])	Serum ALT (U/L) (db/db mice [2]; [7])	mRNA level of iNOS (fold), Liver tissue [3]	mRNA level of iNOS (fold), Colon tissue [3]	ALT (U/L) [4]	Hepatic GSH (μM/g liver tissue) ([4]; vehicle 9.1 ± 0.5)	WAT, mRNA level (fold), IL-1β [3]	WAT, mRNA level (fold), TNFα [3]	mRNA level of SOD2 (fold) (SOD2)
CC1(C)C2CCC1(C)C(OC(=O)C1CCC(O)CC1)C2 (stereo not drawn) [XD-20, 1,7,7-trimethyl-bicyclo[2.2.1]-heptan-2-yl 4-hydroxy-cyclohexane-carboxylate]	396 ± 55^a mg/dl	60 ± 15^b mM/g	115 ± 29 ^a U/L	73 ± 19^a U/L	115 ± 29^a U/L	0.51 ± 0.2^a fold	0.5 ± 0.18^a fold	–	–	–	–	–
CC1(C)C2CCC1(C)C(OC(=O)c1ccc(N)cc1)C2 (stereo not drawn) [XD-5, 1,7,7-trimethyl-bicyclo[2.2.1]-heptan-2-yl 4-aminobenzoate]	–	–	–	–	–	–	–	197 ± 57 ^b U/L	12.8 ± 0.3 ^b μM/g liver tissue	0.33 ± 0.2^a fold	0.56 ± 0.17^a fold	–
Cc1cc(C(=O)OC2CCCCCCC2)ccc1O [XD-17, cyclooctyl 4-hydroxy-3-methylbenzoate]	–	–	–	76 ± 17^a U/L	185 ± 51^a U/L	–	–	117 ± 39 ^c U/L	–	–	–	1.8 ± 0.3 ^a fold
Cc1cc(C(=O)OC2CC3CCC2(C)C3(C)C)ccc1N (stereo not drawn) [XD-4, 1,7,7-trimethyl-bicyclo[2.2.1]-heptan-2-yl 4-amino-3-methylbenzoate]	–	–	–	–	–	0.41 ± 0.1^a fold	0.53 ± 0.37^a fold	236 ± 65 ^a U/L	–	–	–	1.6 ± 0.1 ^b fold
Nc1ccc(C(=O)OC2CCC3CCCCC3C2)cc1 (stereo not drawn) [XD-23, decahydro-naphthalen-2-yl 4-aminobenzoate]	–	–	–	–	–	0.2 ± 0.1^a fold	0.55 ± 0.29^a fold	130 ± 62 ^a U/L	–	0.64 ± 0.13^a fold	0.6 ± 0.21^a fold	–
O=C(OC1CCCCCCC1)c1ccc(O)cc1 [XD-10, cyclooctyl 4-hydroxybenzoate]	–	–	–	–	–	0.52 ± 0.3^a fold	0.49 ± 0.21^a fold	114 ± 31 ^c U/L	–	–	–	–
Nc1ccc(C(=O)OC2CCCCCCC2)cc1 [XD-16, cyclooctyl 4-aminobenzoate]	404 ± 46^a mg/dl	81 ± 23 ^a mM/g	104 ± 33 ^a U/L	88 ± 10^b U/L	104 ± 33^a U/L	0.39 ± 0.18^a fold	0.42 ± 0.22^a fold	127 ± 46 ^b U/L	–	–	–	1.5 ± 0.1 ^b fold
